Laboratory results reported in PubChem BioAssay AID449750 (Broad Institute, 2010).
Active and inactive are the calls of the source. How the calls were made is not given here.

Assay: non-covalent RecA intein splicing inhibitors, dose response, biochemical, cell-free, fluorescence, secondary screen (AID 449750)

Row | Structure (SMILES) | AC50
1 | C/C(CC(=O)Nc1ccc(F)cc1)=N\NC(=O)COc1ccccc1 | > 38 µM (inactive)
2 | O=c1cc(-c2ccc(Cl)c(Cl)c2)[nH][nH]1 | 8.07 µM
3 | COc1ccc(C(=O)Nc2ccncc2)cc1[N+](=O)[O-] | > 38 µM (inactive)
4 | O=c1c2ccccc2nc2n1CCC2 | 22.9 µM
5 | COc1cc(/C=C2\C(=O)N(c3ccc(S(N)(=O)=O)cc3)N=C2C)ccc1OC(=O)c1ccco1 | 21 µM
6 | O=[N+]([O-])c1ccc(Sc2cccc[n+]2[O-])c2nonc12 | 9.27 µM
7 | Cc1cnnn1-c1ccc(C(=O)CCl)cc1 | > 38 µM (inactive)
8 | CCCn1nc([N+](=O)[O-])c(C(C#N)c2nc3ccccc3s2)c(Cl)c1=O (centres undefined) | 23.4 µM
9 | Cc1cc(C(=O)CCl)c(C)n1CCc1ccc(Cl)cc1 | 4.99 µM
10 | COc1ccc(Br)cc1[C@H]1[C@H]2C=CC[C@@H](C)[C@@H]2C(=O)N1Cc1ccccc1 | 14.4 µM
11 | COC(=O)c1ccc(-n2c(C)cc(C(=O)CCl)c2C)cc1 | 17.8 µM
12 | CCCCCCN(C(=O)CCl)c1ccccc1 | 3.5 µM
13 | CCN(Cc1ccc(OC)c(F)c1)C(=O)CCl | 11.9 µM
14 | CN(CCC#N)C(=O)Cn1nc(Cc2ccncc2)c2ccccc2c1=O | > 38 µM (inactive)
15 | O=C(NCc1ccc2c(c1)OCO2)c1nc(S(=O)(=O)Cc2ccccc2F)ncc1Cl | > 38 µM (inactive)
16 | CN(C(=O)C(Cl)Cl)c1ccc(OC(=O)c2ccco2)cc1 | > 38 µM (inactive)
17 | Cc1ccccc1NC1=C/C(=N\S(=O)(=O)c2ccc(C(=O)O)cc2)c2ccccc2C1=O | 14.7 µM
18 | Cc1ccc(NC(=O)c2sc3ncnc(N4CCN(c5ccccn5)CC4)c3c2C)c(C)c1 | > 38 µM (inactive)
19 | COC(=O)c1cccc(-c2ccc(C(c3c(C)[nH][nH]c3=O)c3c(C)[nH][nH]c3=O)o2)c1 | 3.29 µM
20 | CCc1[nH]nc2c1C(c1ccsc1)C(C#N)=C(N)O2 (centres undefined) | > 38 µM (inactive)
21 | O=C(NCc1cccnc1)/C(=C\c1ccc(-c2ccc(Br)cc2)o1)S(=O)(=O)c1ccccc1 | 24.7 µM
22 | COc1ccc(CN(C(=O)CSc2nnc(-c3ccccc3C)o2)c2ccc(F)cc2)cc1 | 21.9 µM
23 | CC(=O)Nc1cc(OC(=O)c2ccco2)cc(OC(=O)c2ccco2)c1 | 11.8 µM
24 | C=COC(=O)CSc1snc(SCC(=O)OC)c1C#N | > 38 µM (inactive)
25 | CCOC(=O)c1c(NC(=O)c2ccco2)n(C2CCCCC2)c2nc3ccccc3nc12 | > 12 µM (inactive)
26 | COCc1[nH]nc2c1C(c1ccc(OC)c(OC)c1)C(C#N)=C(N)O2 (centres undefined) | > 38 µM (inactive)
27 | CCCCCCCOC(=O)c1ccc(OC(=O)c2cccnc2)cc1 | 4.17 µM

Row | Structure (SMILES) | AC50
28 | CC(=O)N(Cc1ccc(F)cc1)C1=C(NCCc2ccccc2)C(=O)c2ccccc2C1=O | 7.58 µM
29 | Cn1c(=O)c([N+](=O)[O-])c(-n2ccnc2)c2ccccc21 | > 38 µM (inactive)
30 | CC(C)(c1ccccc1)c1ccc(OCC2CO2)cc1 (centres undefined) | 8.68 µM
31 | CCN(CC)c1ccc(/C=N/Nc2nc(C)cc(=O)[nH]2)c(O)c1 | > 38 µM (inactive)
32 | Cc1ccc(C(=O)C(OC(=O)CN2C(=O)c3ccccc3C2=O)c2ccccc2)cc1C (centres undefined) | > 38 µM (inactive)
33 | Cc1nc([N+](=O)[O-])c(Sc2nc3ccccc3[nH]2)n1Cc1ccccc1 | > 38 µM (inactive)
34 | CCCCCCCCCCOC(=O)Cn1c(COc2cccc(C)c2)[n+](C)c2ccccc21 | 7.35 µM
35 | Cc1ccc(-c2csc(NC(=O)CSC3=NCCS3)n2)cc1 | 19.1 µM
36 | O=C(CNC(=O)C1COc2ccccc2O1)N/N=C\c1ccccc1Cl (centres undefined) | > 38 µM (inactive)
37 | CCc1cccc(CC)c1NC(=O)/C(C#N)=C/c1ccccc1C(F)(F)F | 11.6 µM
38 | Cc1cc2[nH]ncc2cc1NC(=S)NC(=O)c1ccccc1 | > 38 µM (inactive)
39 | Cn1nc(C(C)(C)C)cc1C(=O)Sc1cccc(Br)c1 | > 38 µM (inactive)
40 | COc1cccc(-n2nnnc2S(C)(=O)=O)c1 | > 38 µM (inactive)
41 | CC1CC(C)CN(C(=O)c2ccc3c(c2)N(Cc2ccccc2)CCS3)C1 (centres undefined) | 14 µM
42 | Cc1ccc(-n2nc(C)c3c2OC(N)=C(C#N)C3c2ccco2)cc1 (centres undefined) | 12.9 µM
43 | CS(=O)(=O)C1=NN2C(=N)/C(=C\c3ccc(OC(=O)c4ccco4)cc3)C(=O)N=C2S1 | > 38 µM (inactive)
44 | Cc1c(Cl)cccc1NC(=O)CSCc1cc(=O)[nH][nH]1 | 33.3 µM
45 | CCCCCCCN(C(=O)CCl)c1ccccc1C | 1.89 µM
46 | CCN(CC)c1ccc2oc(=O)c(C)nc2c1 | 37.2 µM
47 | COC(=O)c1ccc(C(c2c(C)[nH][nH]c2=O)c2c(C)[nH][nH]c2=O)cc1 | > 38 µM (inactive)
48 | O=c1cc(-c2ccccc2)[nH][nH]1 | 12.8 µM
49 | CC1=NNC(=O)C1C(c1ccc(F)cc1)C(C#N)C#N (centres undefined) | > 38 µM (inactive)
50 | CCN(CC)CCOc1ccc(/C(=C(\Cl)c2ccccc2)c2ccccc2)cc1 | 9.57 µM
51 | CC1(C)C=C2C(=NN(c3ccccc3)C(N)=C2C#N)CO1 | 3.43 µM
52 | Cc1ccc(-n2nc(C)c3c2OC(N)=C(C#N)C3c2ccoc2)cc1 (centres undefined) | 6.18 µM
53 | OCC[n+]1c2ccccc2nc2ccc(N3CCOCC3)cc21 | 26.5 µM
54 | CSc1nnc(NC(=O)c2nc(S(=O)(=O)Cc3cccc(C)c3)ncc2Cl)s1 | > 38 µM (inactive)
